Like-named read-outs stand apart in the source and are kept apart here.
How the values were obtained:
human plasmin = human plasmin (Homo sapiens, UniProt P00747); test: Inhibition of human plasmin, chromogenic substrate Tos-Gly-Pro-Lys-pNA, Ki according to Dixon; format: biochemical
Method: The measurements were carried out on a microplate reader at 25′C.
(§1) The measurements were carried out on a microplate reader at 25° C. […] The Ki-values for the respective inhibitors were calculated according to Dixon34 using a linear regression proaram. Bz-βAla-Gly-Arg-pNA was used as the substrate for human uPA and Tos-Gly-Pro-Lys-pNA for human plasmin.

human uPA = human uPA (Homo sapiens, UniProt P00749); test: Inhibition of human uPA (urokinase), chromogenic substrate Bz-βAla-Gly-Arg-pNA, Ki according to Dixon; format: biochemical
Method: The measurements were carried out on a microplate reader at 25° C.
as §1

[1] = comparative inhibitor compositions, 0.1% inhibitor and 99.9% of glycerine 86%, 25° C., pH 8.0, Dixon, read-out: Ki for plasmin inhibition

Chain of human plasmin (P00747 581-810 limits assumed): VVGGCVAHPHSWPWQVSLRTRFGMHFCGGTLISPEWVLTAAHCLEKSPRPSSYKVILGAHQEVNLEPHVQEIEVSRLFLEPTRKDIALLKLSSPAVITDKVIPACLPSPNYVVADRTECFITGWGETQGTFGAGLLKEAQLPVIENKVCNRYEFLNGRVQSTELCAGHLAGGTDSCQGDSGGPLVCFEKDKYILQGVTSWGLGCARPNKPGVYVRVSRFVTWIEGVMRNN
Chain of human plasmin (P00747 97-580 partner limits assumed): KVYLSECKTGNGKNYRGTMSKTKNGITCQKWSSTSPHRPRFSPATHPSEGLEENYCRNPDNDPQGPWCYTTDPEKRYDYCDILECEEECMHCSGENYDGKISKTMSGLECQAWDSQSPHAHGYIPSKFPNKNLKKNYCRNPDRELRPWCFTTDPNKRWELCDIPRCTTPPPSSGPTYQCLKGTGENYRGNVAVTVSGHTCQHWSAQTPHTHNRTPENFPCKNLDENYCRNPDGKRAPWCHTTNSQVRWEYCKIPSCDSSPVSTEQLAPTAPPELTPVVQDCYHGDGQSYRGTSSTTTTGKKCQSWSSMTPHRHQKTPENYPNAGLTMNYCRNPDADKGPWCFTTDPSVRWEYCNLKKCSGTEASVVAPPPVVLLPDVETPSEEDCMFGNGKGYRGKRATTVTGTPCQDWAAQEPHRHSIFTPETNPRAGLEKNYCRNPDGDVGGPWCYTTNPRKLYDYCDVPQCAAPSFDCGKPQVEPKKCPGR

Ki (human plasmin; [1]) | Ki (human uPA; comparative inhibitor compositions, 0.1% inhibitor and 99.9% of glycerine 86%, 25° C., pH 8.0, Dixon, read-out: Ki for uPA inhibition) | Compound | Ki (human uPA) | Ki (human plasmin) | Ki for plasmin inhibition compared to 3 other 4-amidino benzylamines (human plasmin; compared to the Gly, Ala and Lys analogues of WO2009/026949)
11000 nM | – | N=C(N)c1ccc(CNC(=O)CNC(=O)[C@@H](CO)NS(=O)(=O)Cc2ccccc2)cc1 [Benzylsulfonyl-D-Ser-Gly-(4-amidino-benzylamide)] | – | – | –
360 nM | 24 nM | N=C(N)c1ccc(CNC(=O)C(CCCCN)NC(=O)C(CO)NS(=O)(=O)Cc2ccccc2)cc1 [Benzylsulfonyl-D-Ser-Lys-(4-amidino-benzylamide), reference compound] | – | – | –
– | – | N=C(N)c1ccc(CNC(=O)C(CCc2ccccc2)NC(=O)C(CO)NS(=O)(=O)Cc2ccccc2)cc1 [benzylsulfonyl-D-Ser-homoPhe-(4-amidino-benzylamide)] | 28 nM | 36 nM | an order of magnitude better
540 nM | – | CC(NC(=O)C(CO)NS(=O)(=O)Cc1ccccc1)C(=O)NCc1ccc(C(=N)N)cc1 [Benzylsulfonyl-D-Ser-Ala-(4-amidino-benzylamide)] | – | – | –
